# According to patent publication US5373000A, “7Beta-(thiadiazolyl)-2-iminoacetamido-3cephem compounds” (Eisai Co., Ltd., priority 1985, dated 1994):
# Counter-ions that a name gives are not always drawn. Like-named read-outs stand apart in the source and are kept apart here.
# Tests used:
# Test in all cases: Antibacterial activities, MIC
# Format in all cases: cell-based
# Morg. morganii EP-14 = tested on: Morg. morganii EP-14
# Kleb Pneumoniae EK-6 = tested on: Kleb Pneumoniae EK-6
# Ser. marcescens ES-75 = tested on: Ser. marcescens ES-75
# Staph. aureus 209-P = tested on: Staph. aureus 209-P
# Pseud. aeruginosa EP-01 = tested on: Pseud. aeruginosa EP-01
# Escher. coli NIHJ = tested on: Escher. coli NIHJ
# [1] = Morganella morganii, EP14, Morg. morganii EP-14, read-out: MIC
# [2] = Serratia marcescens, ES75, read-out: MIC
# [3] = Staphylococcus aureus, read-out: MIC
# [4] = Pseudomonas aeruginosa, EP01, Pseud. aeruginosa EP-01, read-out: MIC
# [5] = Escherichia coli, read-out: MIC
Compound,MIC (Morg. morganii EP-14; [1]),MIC (Kleb Pneumoniae EK-6; read-out: MIC),MIC (Ser. marcescens ES-75; [2]),MIC (Staph. aureus 209-P; [3]),MIC (Pseud. aeruginosa EP-01; [4]),MIC (Escher. coli NIHJ; [5]),MIC (Morg. morganii EP-14; Morg. morganii EP-14),MIC (Kleb Pneumoniae EK-6),MIC (Ser. marcescens ES-75),MIC (Staph. aureus 209-P),MIC (Pseud. aeruginosa EP-01; Pseud. aeruginosa EP-01),MIC (Escher. coli NIHJ)
"CO/N=C(\C(=O)N[C@@H]1C(=O)N2C(C(=O)[O-])=C(/C=C/C[N+]3(C)CCCN3C)CS[C@H]12)c1nsc(N)n1 (single isomer, unassigned) [Example 30-A, 7β-[2-(5-Amino-1,2,4-thiadiazol-3-yl)-(Z)-2-methoxyiminoacetamido]-3-[(E)-(1,2-dimethyl-1-pirazolydinio)-1-propen-1-yl]-3-cephem-4-carboxylate]",≤ 0.025 µg/mL,≤ 0.025 µg/mL,0.05 µg/mL,0.1 µg/mL,0.4 µg/mL,≤ 0.025 µg/mL,–,–,–,–,–,–
"CO/N=C(\C(=O)N[C@@H]1C(=O)N2C(C(=O)[O-])=C(/C=C/C[N+]3(C)CCCN3C)CS[C@H]12)c1nsc(N)n1 (single isomer, unassigned) [Example 30-B, 7β-[2-(5-Amino-1,2,4-thiadiazol-3-yl)-(Z)-2-methoxyiminoacetamido]-3-[(E)-(1,2-dimethyl-1-pirazolydinio)-1-propen-1-yl]-3-cephem-4-carboxylate]",–,–,–,–,–,–,0.05 µg/mL,≤ 0.025 µg/mL,0.05 µg/mL,0.1 µg/mL,0.8 µg/mL,≤ 0.025 µg/mL
"CO/N=C(\C(=O)N[C@@H]1C(=O)N2C(C(=O)[O-])=C(/C=C/C[N+]3(C)CC=CC3)CS[C@H]12)c1nsc(N)n1 [Example 2, 7β-[2-(5-Amino-1,2,4-thiadiazol-3-yl)-(Z)-2-methoxyiminoacetamido]-3-[(E)-3-(1-methyl-3-pyrrolinio)-1-propene-1-yl)-3-cephem-4-carboxylate]",0.05 µg/mL,≤ 0.025 µg/mL,0.1 µg/mL,0.2 µg/mL,1.56 µg/mL,0.05 µg/mL,–,–,–,–,–,–
"CO/N=C(\C(=O)N[C@@H]1C(=O)N2C(C(=O)[O-])=C(/C=C/C[N+]3(C)CCC[C@H]3CO)CS[C@H]12)c1nsc(N)n1 (stereo partly drawn) [Example 3, 7β-[2-(5-Amino-1,2,4-thiadiazol-3-yl)-(Z)-2-methoxyiminoacetamido]-3-[(E)-3-((2S)-2-hydroxymethyl-1-methylpyrrolidinio)-1-propen-1-yl]-3-cephem-4-carboxylate]",0.05 µg/mL,≤ 0.025 µg/mL,0.1 µg/mL,0.2 µg/mL,1.56 µg/mL,0.05 µg/mL,–,–,–,–,–,–
"CO/N=C(\C(=O)N[C@@H]1C(=O)N2C(C(=O)[O-])=C(/C=C/C[N+]34CCC(C(N)=O)(CC3)CC4)CS[C@H]12)c1nsc(N)n1 [Example 4, 7β-[2-(5-Amino-1,2,4-thiadiazol-3-yl)-(Z)-2-methoxyiminoacetamido]-3-[(E)-3-(4-carbamoylquinuclidinio)-1-propen-1-yl]-3-cephem-4-carboxylate]",0.05 µg/mL,≤ 0.025 µg/mL,0.1 µg/mL,0.4 µg/mL,1.56 µg/mL,0.05 µg/mL,–,–,–,–,–,–
"CO/N=C(\C(=O)N[C@@H]1C(=O)N2C(C(=O)[O-])=C(/C=C/C[N+]3(C)CCNCC3)CS[C@H]12)c1nsc(N)n1 [Example 5, 7β-[(2-(5-Amino-1,2,4-thiadiazol-3-yl)-(Z)-2-methoxyiminoacetamido]-3-[(E)-3-(1-methyl-1-piperadinio)-1-propen-1-yl]-3-cephem-4-carboxylate trifluoroacetate]",0.1 µg/mL,≤ 0.025 µg/mL,0.1 µg/mL,0.2 µg/mL,0.8 µg/mL,0.05 µg/mL,–,–,–,–,–,–
"CC[N+](CC)(C/C=C/C1=C(C(=O)[O-])N2C(=O)[C@@H](NC(=O)/C(=N\OC)c3nsc(N)n3)[C@H]2SC1)CC(N)=O [Example 11, 7β-[2-(5-Amino-1,2,4-thiadiazol-3-yl)-(Z)-2-methoxyiminoacetamido]-3-[(E)-3-(carbamoylmethyldiethylammonio)-1-propen-1-yl]-3-cephem-4-carboxylate]",0.05 µg/mL,≤ 0.025 µg/mL,0.1 µg/mL,0.2 µg/mL,1.56 µg/mL,0.05 µg/mL,–,–,–,–,–,–
"CO/N=C(\C(=O)N[C@@H]1C(=O)N2C(C(=O)[O-])=C(/C=C/C[N+](C)(C)CCN(C)C)CS[C@H]12)c1nsc(N)n1 [Example 12, 7β-[2-(5-Amino-1,2,4-thiadiazol-3-yl)-(Z)-2-methoxyiminoacetamido]-3-[(E)-3-(2-dimethylaminoethyldimethylammonio)-1-propen-1-yl]-3-cephem-4-carboxylate]",0.1 µg/mL,0.05 µg/mL,0.1 µg/mL,0.4 µg/mL,1.56 µg/mL,0.05 µg/mL,–,–,–,–,–,–
"CO/N=C(\C(=O)N[C@@H]1C(=O)N2C(C(=O)[O-])=C(/C=C/C[n+]3ccc4n3CCOC4)CS[C@H]12)c1nsc(N)n1 [Example 14, 7β-[2-(5-Amino-1,2,4-thiadiazol-3-yl)-(Z)-2-methoxyiminoacetamido]-3-[(E)-(1-morpholino[4,3-b]pyrazolio)-1-propen-1-yl]-3-cephem-4-carboxylate]",0.05 µg/mL,≤ 0.025 µg/mL,0.05 µg/mL,0.2 µg/mL,1.56 µg/mL,≤ 0.025 µg/mL,–,–,–,–,–,–
"CCO/N=C(\C(=O)N[C@@H]1C(=O)N2C(C(=O)[O-])=C(/C=C/C[N+](C)(C)CC(N)=O)CS[C@H]12)c1nsc(N)n1 [Example 15, 7β-[2-(5-Amino-1,2,4-thiadiazol-3-yl)-(Z)-2-ethoxyiminoacetamido]-3-[(E)-3-(carbamoylmethyldimethylammonio)-1-propen-1-yl]-3-cephem-4-carboxylate]",0.05 µg/mL,0.05 µg/mL,0.2 µg/mL,0.2 µg/mL,1.56 µg/mL,0.1 µg/mL,–,–,–,–,–,–
"CO/N=C(\C(=O)N[C@@H]1C(=O)N2C(C(=O)[O-])=C(/C=C/C[N+](C)(C)CC(C)=O)CS[C@H]12)c1nsc(N)n1 [Example 17, 7β-[2-(5-Amino-1,2,4-thiadiazol-3-yl)-(Z)-2-methoxyiminoacetamido]-3-[(E)-3-(2-oxopropyldimethylammonio)-1-propen-1-yl]-3-cephem-4-carboxylate]",0.1 µg/mL,0.05 µg/mL,0.1 µg/mL,0.4 µg/mL,1.56 µg/mL,0.05 µg/mL,–,–,–,–,–,–
"CO/N=C(\C(=O)N[C@@H]1C(=O)N2C(C(=O)[O-])=C(/C=C/C[N+](C)(C)CCO)CS[C@H]12)c1nsc(N)n1 [Example 18-A, 7β-[2-(5-Amino-1,2,4-thiadiazol-3-yl)-(Z)-2-methoxyiminoacetamido]-3-[(E)-3-(2-hydroxyethyldimethylammonio)-1-propen-1-yl]-3-cephem-4-carboxylate]",0.05 µg/mL,≤ 0.025 µg/mL,0.1 µg/mL,0.2 µg/mL,0.8 µg/mL,≤ 0.025 µg/mL,–,–,–,–,–,–
CO/N=C(\C(=O)N[C@@H]1C(=O)N2C(C(=O)[O-])=C(/C=C/C[N+](C)(C)Cc3ncon3)CS[C@H]12)c1nsc(N)n1 [Example 21],≤ 0.025 µg/mL,≤ 0.025 µg/mL,0.05 µg/mL,0.2 µg/mL,1.56 µg/mL,≤ 0.025 µg/mL,–,–,–,–,–,–
CO/N=C(\C(=O)N[C@@H]1C(=O)N2C(C(=O)[O-])=C(/C=C/C[N+](C)(C)Cc3cnc[nH]3)CS[C@H]12)c1nsc(N)n1 [Example 22],0.05 µg/mL,0.05 µg/mL,0.1 µg/mL,0.2 µg/mL,1.56 µg/mL,0.05 µg/mL,–,–,–,–,–,–
"CO/N=C(\C(=O)N[C@@H]1C(=O)N2C(C(=O)[O-])=C(/C=C/C[N+](C)(C)Cc3cscn3)CS[C@H]12)c1nsc(N)n1 [Example 23, 7β-[2-(5-Amino-1,2,4-thiadiazol-3-yl)-(Z)-2-methoxyiminoacetamido]-3-[(E)-3[(thiazol-4-yl)methyldimethylammonio]-1-propen-1-yl]-3-cephem-4-carboxylate]",≤ 0.025 µg/mL,≤ 0.025 µg/mL,0.05 µg/mL,0.2 µg/mL,3.13 µg/mL,≤ 0.025 µg/mL,–,–,–,–,–,–
"CO/N=C(\C(=O)N[C@@H]1C(=O)N2C(C(=O)[O-])=C(/C=C/C[N+](C)(C)Cc3cc[nH]n3)CS[C@H]12)c1nsc(N)n1 [Example 24, 7β-[2-(5-Amino-1,2,4-thiadiazol-3-yl)-(Z)-2-methoxyiminoacetamido]-3-[(E)-3-[(pyrazol-3-yl)methyldimethylammonio]-1-propen-1-yl]-3-cephem-4-carboxylate]",0.05 µg/mL,≤ 0.025 µg/mL,0.1 µg/mL,0.2 µg/mL,3.13 µg/mL,≤ 0.025 µg/mL,–,–,–,–,–,–
CO/N=C(\C(=O)N[C@@H]1C(=O)N2C(C(=O)[O-])=C(/C=C/C[N+](C)(C)Cc3csc(N)n3)CS[C@H]12)c1nsc(N)n1 [Example 25],0.05 µg/mL,0.03 µg/mL,0.03 µg/mL,0.2 µg/mL,3.13 µg/mL,≤ 0.025 µg/mL,–,–,–,–,–,–
"CO/N=C(\C(=O)N[C@@H]1C(=O)N2C(C(=O)[O-])=C(/C=C/C[N+](C)(C)Cc3ccoc3)CS[C@H]12)c1nsc(N)n1 [Example 26, 7β-[2-(5-Amino-1,2,4-thiadiazol-3-yl)-(Z)-2-methoxyiminoacetamido]-3-[(E)-3-[(furan-3-yl)-methyldimethylammonio]-1-propen-1-yl]-3-cephem-4-carboxylate]",≤ 0.025 µg/mL,≤ 0.025 µg/mL,0.05 µg/mL,0.2 µg/mL,3.13 µg/mL,≤ 0.025 µg/mL,–,–,–,–,–,–
"CO/N=C(\C(=O)N[C@@H]1C(=O)N2C(C(=O)[O-])=C(/C=C/C[N+]3(C)CCN(S(N)(=O)=O)CC3)CS[C@H]12)c1nsc(N)n1 [Example 27, 7β-[2-(5-Amino-1,2,4-thiadiazol-3-yl)-(Z)-2-methoxyiminoacetamido]-3-[(E)-3-(1-methyl-4-sulfamoyl-1-piperazinio)-1-propen-1-yl]-3-cephem-4-carboxylate]",0.05 µg/mL,≤ 0.025 µg/mL,0.1 µg/mL,0.2 µg/mL,0.8 µg/mL,≤ 0.025 µg/mL,–,–,–,–,–,–
CO/N=C(\C(=O)N[C@@H]1C(=O)N2C(C(=O)[O-])=C(/C=C/C[N+]3(CC(N)=O)CC[C@@H](O)C3)CS[C@H]12)c1nsc(N)n1 (some centres unmarked) [Example 45-2],–,–,–,–,–,–,≤ 0.025 µg/mL,≤ 0.025 µg/mL,–,0.4 µg/mL,0.8 µg/mL,0.05 µg/mL
